What was measured:
wheat = assay: Test B pre/postemergence wheat; format: in vivo, Triticum aestivum
Method in brief: (§1)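 Response is a visual 0-to-10 score relative to untreated plants, where 0 means no effect and 10 means complete control, taken twelve to sixteen days after application. Treatments went onto soil at planting and onto foliage of 1- to 4-leaf plants, using a surfactant-containing non-phytotoxic solvent.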

rape = assay: Test B pre/postemergence rape; format: in vivo, Brassica napus
Method in brief: as §1

wild oat = assay: Test B pre/postemergence wild oat; format: in vivo, Avena fatua
Method in brief: as §1

bedstraw = assay: Test B pre/postemergence bedstraw; format: in vivo, Galium aparine; conditions: Preemergence, scale of 0 to 10 where 0 is no effect and 10 is complete control
Method in brief: as §1

purple nutsedge = assay: Test B pre/postemergence purple nutsedge; format: in vivo, Cyperus rotundus
Method in brief: as §1

duck salad = assay: Test B flood test duck salad; format: in vivo, Heteranthera limosa
Method in brief: (§2)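 Read-out is a visual response score from 0 (no effect) to 10 (complete control), assigned by comparison with untreated controls. Treatment was applied at the 2-leaf stage, and plants stayed in the greenhouse for twelve to sixteen days before scoring.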

cocklebur = assay: Test B pre/postemergence cocklebur; format: in vivo, Xanthium strumarium
Method in brief: as §1

velvetleaf = assay: Test B pre/postemergence velvetleaf; format: in vivo, Abutilon theophrasti
Method in brief: as §1

giant foxtail = assay: Test B pre/postemergence giant foxtail; format: in vivo, Setaria faberii
Method in brief: as §1

corn = assay: Test B pre/postemergence corn; format: in vivo, Zea mays
Method in brief: as §1

crabgrass = assay: Test B pre/postemergence crabgrass; format: in vivo, Digitaria sanguinalis
Method in brief: as §1

smallflower flatsedge = assay: Test B flood test smallflower flatsedge; format: in vivo, Cyperus difformis
Method in brief: as §2

pigweed = assay: Test B pre/postemergence pigweed; format: in vivo, Amaranthus retroflexus
Method in brief: as §1

soybean = assay: Test B pre/postemergence soybean; format: in vivo, Glycine max
Method in brief: as §1

rice = assay: Test B flood test rice; format: in vivo, Oryza sativa
Method in brief: as §2

morningglory = assay: Test B pre/postemergence morningglory; format: in vivo, Ipomoea hederacea
Method in brief: as §1

[1] = Preemergence, Rate 62 g/ha, scale of 0 to 10 where 0 is no effect and 10 is complete control
[2] = Preemergence, Rate 250 g/ha, scale of 0 to 10 where 0 is no effect and 10 is complete control
[3] = Preemergence, Rate 500 g/ha, scale of 0 to 10 where 0 is no effect and 10 is complete control
[4] = Rate 62 g/ha, Postemergence, scale 0 to 10 (0 no effect, 10 complete control)
[5] = Rate 125 g/ha, Postemergence, scale of 0 to 10 where 0 is no effect and 10 is complete control
[6] = Rate 125 g/ha, Preemergence, scale of 0 to 10 where 0 is no effect and 10 is complete control
[7] = Rate 250 g/ha, Postemergence, scale of 0 to 10 where 0 is no effect and 10 is complete control
[8] = Rate 500 g/ha, Postemergence, scale 0 to 10, 0 no effect, 10 complete control
[9] = Rate 62 g/ha, headed Pre-emergence (flood test species), scale 0 to 10 (0 no effect, 10 complete control)
[10] = Rate 125 g/ha, Pre-emergence, flood test species, scale 0 to 10 where 0 is no effect and 10 is complete control
[11] = Rate 250 g/ha, Pre-emergence, flood-test species, scale 0 to 10, 0 is no effect, 10 is complete control
[12] = Rate 500 g/ha, Pre-emergence, flood test species, scale 0 to 10 (0 no effect, 10 complete control)

For `CC1Cc2cccc(-n3c(=O)on(C(=O)N(c4ccc(F)cc4)C(C)C)c3=O)c2O1` (stereo not drawn) [Compound 281], the “Wheat plant response rating” value (wheat; [1]) was 0, the “Wheat plant response rating” value (wheat; [2]) was 0 and the “Plant response rating, Wheat” value (wheat; [3]) was 0. For the same molecule, the “Wheat plant response rating” value (wheat; [4]) was 0, the “Wheat plant response rating” value (wheat; [5]) was 0 and the “Wheat plant response rating” value (wheat; [6]) was 0. For the same molecule, the “Plant response rating, Wheat” value (wheat; [7]) was 0, the “Wheat plant response rating” value (wheat; [8]) was 0 and the “Rape plant response rating” value (rape; [1]) was 0. For the same molecule, the “Rape plant response rating” value (rape; [2]) was 0, the “Plant response rating, Rape” value (rape; [3]) was 0 and the “Rape plant response rating” value (rape; [4]) was 0. The “Rape plant response rating” value (rape; [5]) was 0, the “Rape plant response rating” value (rape; [6]) was 0 and the “Plant response rating, Rape” value (rape; [7]) was 0. For the same molecule, the “Rape plant response rating” value (rape; [8]) was 0, the “Wild oats plant response rating” value (wild oat; [1]) was 0 and the “Wild oats plant response rating” value (wild oat; [2]) was 2. For the same molecule, the “Plant response rating, Wild oats” value (wild oat; [3]) was 3, the “Wild oats plant response rating” value (wild oat; [4]) was 0 and the “Wild oats plant response rating” value (wild oat; [5]) was 0. For the same molecule, the “Plant response rating, Wild oats” value (wild oat; [7]) was 0, the “Wild oats plant response rating” value (wild oat; [8]) was 0 and the “Bedstraw plant response rating” value (bedstraw; Rate 62 g/ha) was 0. For the same molecule, the “Bedstraw plant response rating” value (bedstraw; Rate 250 g/ha) was 6, the “Plant response rating, Bedstraw” value (bedstraw; Rate 500 g/ha) was 10 and the “Bedstraw plant response rating” value (bedstraw; Rate 125 g/ha) was 3. The “Nutsedge plant response rating” value (purple nutsedge; [1]) was 0, the “Nutsedge plant response rating” value (purple nutsedge; [2]) was 0 and the “Plant response rating, Nutsedge” value (purple nutsedge; [3]) was 0. The “Nutsedge plant response rating” value (purple nutsedge; [4]) was 0, the “Nutsedge plant response rating” value (purple nutsedge; [5]) was 0 and the “Nutsedge plant response rating” value (purple nutsedge; [6]) was 0. The “Plant response rating, Nutsedge” value (purple nutsedge; [7]) was 0, the “Nutsedge plant response rating” value (purple nutsedge; [8]) was 0 and the “Ducksalad plant response rating” value (duck salad; [9]) was 0. For the same molecule, the “Ducksalad plant response rating” value (duck salad; [10]) was 0, the “Ducksalad plant response rating” value (duck salad; [11]) was 0 and the “Ducksalad plant response rating” value (duck salad; [12]) was 0. For the same molecule, the “Cocklebur plant response rating” value (cocklebur; [2]) was 0, the “Plant response rating, Cocklebur” value (cocklebur; [3]) was 0 and the “Cocklebur plant response rating” value (cocklebur; [4]) was 0. For the same molecule, the “Cocklebur plant response rating” value (cocklebur; [5]) was 0, the “Plant response rating, Cocklebur” value (cocklebur; [7]) was 0 and the “Cocklebur plant response rating” value (cocklebur; [8]) was 0. The “Velvetleaf plant response rating” value (velvetleaf; [1]) was 0, the “Velvetleaf plant response rating” value (velvetleaf; [2]) was 0 and the “Plant response rating, Velvetleaf” value (velvetleaf; [3]) was 0. For the same molecule, the “Velvetleaf plant response rating” value (velvetleaf; [4]) was 0, the “Velvetleaf plant response rating” value (velvetleaf; [5]) was 1 and the “Velvetleaf plant response rating” value (velvetleaf; [6]) was 0. For the same molecule, the “Plant response rating, Velvetleaf” value (velvetleaf; [7]) was 1, the “Velvetleaf plant response rating” value (velvetleaf; [8]) was 1 and the “Giant foxtail plant response rating” value (giant foxtail; [1]) was 7. For the same molecule, the “Giant foxtail plant response rating” value (giant foxtail; [2]) was 10, the “Plant response rating, Giant foxtail” value (giant foxtail; [3]) was 10 and the “Giant foxtail plant response rating” value (giant foxtail; [4]) was 0. For the same molecule, the “Giant foxtail plant response rating” value (giant foxtail; [5]) was 0, the “Giant foxtail plant response rating” value (giant foxtail; [6]) was 9 and the “Plant response rating, Giant foxtail” value (giant foxtail; [7]) was 0. For the same molecule, the “Giant foxtail plant response rating” value (giant foxtail; [8]) was 0, the “Corn plant response rating” value (corn; [1]) was 0 and the “Corn plant response rating” value (corn; [2]) was 0. For the same molecule, the “Plant response rating, Corn” value (corn; [3]) was 0, the “Corn plant response rating” value (corn; [4]) was 0 and the “Corn plant response rating” value (corn; [5]) was 0. For the same molecule, the “Corn plant response rating” value (corn; [6]) was 0, the “Plant response rating, Corn” value (corn; [7]) was 0 and the “Corn plant response rating” value (corn; [8]) was 0. For the same molecule, the “Crabgrass plant response rating” value (crabgrass; [1]) was 2, the “Crabgrass plant response rating” value (crabgrass; [2]) was 10 and the “Plant response rating, Crabgrass” value (crabgrass; [3]) was 10. For the same molecule, the “Crabgrass plant response rating” value (crabgrass; [4]) was 0, the “Crabgrass plant response rating” value (crabgrass; [5]) was 0 and the “Crabgrass plant response rating” value (crabgrass; [6]) was 10. For the same molecule, the “Plant response rating, Crabgrass” value (crabgrass; [7]) was 0, the “Crabgrass plant response rating” value (crabgrass; [8]) was 0 and the “S. Flatsedge plant response rating” value (smallflower flatsedge; [9]) was 0. The “S. Flatsedge plant response rating” value (smallflower flatsedge; [10]) was 0, the “S. Flatsedge plant response rating” value (smallflower flatsedge; [11]) was 0 and the “S. Flatsedge plant response rating” value (smallflower flatsedge; [12]) was 0. The “Redroot pigweed plant response rating” value (pigweed; [1]) was 0, the “Redroot pigweed plant response rating” value (pigweed; [2]) was 0 and the “Plant response rating, Redroot pigweed” value (pigweed; [3]) was 0. The “Redroot pigweed plant response rating” value (pigweed; [4]) was 0, the “Redroot pigweed plant response rating” value (pigweed; [5]) was 2 and the “Redroot pigweed plant response rating” value (pigweed; [6]) was 0. For the same molecule, the “Plant response rating, Redroot pigweed” value (pigweed; [7]) was 5, the “Redroot pigweed plant response rating” value (pigweed; [8]) was 6 and the “Soybean plant response rating” value (soybean; [1]) was 0. For the same molecule, the “Soybean plant response rating” value (soybean; [2]) was 0, the “Plant response rating, Soybean” value (soybean; [3]) was 0 and the “Soybean plant response rating” value (soybean; [4]) was 2. The “Soybean plant response rating” value (soybean; [6]) was 0, the “Plant response rating, Soybean” value (soybean; [7]) was 3 and the “Soybean plant response rating” value (soybean; [8]) was 3. For the same molecule, the “Rice plant response rating” value (rice; [9]) was 0, the “Rice plant response rating” value (rice; [10]) was 0 and the “Rice plant response rating” value (rice; [11]) was 0. The “Rice plant response rating” value (rice; [12]) was 0, the “Morningglory plant response rating” value (morningglory; [1]) was 0 and the “Morningglory plant response rating” value (morningglory; [2]) was 0. The “Plant response rating, Morningglory” value (morningglory; [3]) was 0, the “Morningglory plant response rating” value (morningglory; [4]) was 2 and the “Morningglory plant response rating” value (morningglory; [5]) was 2. The “Morningglory plant response rating” value (morningglory; [6]) was 0, the “Plant response rating, Morningglory” value (morningglory; [7]) was 3 and the “Morningglory plant response rating” value (morningglory; [8]) was 5.
